≈ marks a conversion by molar mass, not a printed value. Where two headings read alike, the source gives them in different places.
Experiments:
[1] = system: Staphylococcus aureus NCTC 13373 (mecA-positive; methicillin-resistant); experiment: In vitro antibacterial activity, MIC (UCL School of Pharmacy assay), MRSA; assay type: cell-based; details: for MIC: Staphylococcus aureus
Description: (§1) Staphylococcus aureus NCTC 13373 (mecA-positive; methicillin-resistant, NCTC 13373) was supplied by the National Collection of Type Cultures (NCTC), Public Health England, United Kingdom. Other organisms, S. aureus ATCC 25923 (methicillin-susceptible) and Enterococcus faecalis ATCC 51299 (vanA-positive; vancomycin-resistant), were obtained from the American Type Culture Collection (ATCC) via LGC Standards, UK. A suspension of each organism was prepared from an overnight plate culture (tryptone soya agar) in phosphate-buffered saline (PBS) and adjusted to an absorbance reading at 600 nm of 0.1, which is approximately equivalent to 1 × 10^8 colony-forming units (CFU) per mL. The cultures were further diluted 1:100 in isosensitest broth (Oxoid, United Kingdom) before 100 μL was used to inoculate each well of a 96-well plate that contained diluted samples of the OSA series. Compounds were evaluated over a 2-fold dilution range from 32 to 0.03 μg/mL. Stocks of the samples were prepared in 100% DMSO at […] before being diluted in isosenstitest broth. The highest concentration of DMSO present was 2%, which has been previously shown not to inhibit the growth of the microorganisms (data not shown). […] Vancomycin was used as a quality control compound.

[2] = system: S. aureus ATCC 25923 (methicillin-susceptible); experiment: In vitro antibacterial activity, MIC (UCL), MSSA; assay type: cell-based, Staphylococcus aureus; details: for MIC: Staphylococcus aureus
Description: as §1

[3] = UCL assay, read-out: MRSA MIC (ug/mL) (UCL)
[4] = UCL assay, read-out: MSSA MIC (ug/mL) (UCL)

In the case of `c1ccc(-c2nc3n(c2-c2ccc4c(c2)CCO4)CCC3)nc1` [compound 827], the “activity against MRSA, in words” value [1] is reported as “ineffective” and the MIC ([1]; read-out: MRSA MIC) is reported as 32 µg/mL (≈ 105 µM).

For `N#Cc1ccc(-c2c(-c3ncccn3)nc3ccccn23)cc1` [compound 1107], the “MRSA MIC” value [1] was over 32 mg/L and the “MSSA MIC” value [2] was over 32 mg/L.

Work on `N#Cc1ccc(-c2nc(-c3ccccn3)c[nH]2)cc1` [OSA_001102] yielded an MIC [1, 3] of over 32 µg/mL and an MIC [2, 4] of over 32 µg/mL.

`CC(C)CN(Cc1c(-c2ccccn2)nc2ccccn12)c1ccc(F)cc1` [OSA_001040] was tested, and the MIC [1, 3] was 32 µg/mL (≈ 85.5 µM) and the MIC [2, 4] was over 32 µg/mL.

With `N#Cc1ccc(-c2c(-c3ccccn3)nc3cnccn23)cc1` [compound 1106] the “MRSA MIC” value [1] was over 32 mg/L and the “MSSA MIC” value [2] was over 32 mg/L.

`N#Cc1ccc(-c2c(-c3ccccn3)nc3cnccn23)cc1` [OSA_001106] was tested, and the MIC [1, 3] was over 32 µg/mL and the MIC [2, 4] was over 32 µg/mL.

`Cc1ccc(-c2c(-c3ccccn3)nc3cc(C(N)=O)ccn23)cc1` [OSA_001015] showed an MIC ([1]; UCL, read-out: MRSA MIC (UCL)) of over 32 µg/mL and an MIC ([2]; read-out: MSSA MIC (UCL)) of over 32 µg/mL.

`N#Cc1ccc(C(=O)Nc2c(-c3ccccn3)nc3ccccn23)cc1` [compound 1016] gave an MIC ([1]; read-out: MRSA MIC) of over 32 µg/mL and an MIC ([2]; read-out: MSSA MIC) of over 32 µg/mL.

With `Cc1ccc(C(=O)Nc2c(-c3ccccn3)nc3ccccn23)cc1` [OSA_001017] the MIC ([1]; UCL, read-out: MRSA MIC (UCL)) was over 32 µg/mL and the MIC ([2]; read-out: MSSA MIC (UCL)) was over 32 µg/mL.

`N#Cc1ccc(-c2c(-c3ccccn3)nc3cccnn23)cc1` [OSA_001103] showed an MIC [1, 3] of over 32 µg/mL and an MIC [2, 4] of over 32 µg/mL.

With `CC(C)CN(c1ccc(F)cc1)c1c(-c2ccccn2)nc2cnccn12` [compound 1035] the MIC ([1]; read-out: MRSA MIC) was over 32 µg/mL and the MIC ([2]; read-out: MSSA MIC) was over 32 µg/mL.

With `CN(c1ccc(F)cc1)c1c(-c2ccccn2)nc2cccc(F)n12` [compound 1005] the MIC ([1]; read-out: MRSA MIC) was 32 µg/mL (≈ 95.1 µM) and the MIC ([2]; read-out: MSSA MIC) was 32 µg/mL (≈ 95.1 µM).

`c1cc(-c2nc3n(c2-c2ccc4c(c2)OCO4)CCC3)ccn1` [compound 817] was tested, and the “MRSA MIC” value [1] was over 32 mg/L.

With `c1cncc(-c2nc3n(c2-c2ccc4c(c2)OCO4)CCC3)c1` [compound 816] the “MRSA MIC” value [1] was over 32 mg/L.

With `Cc1ccc(-c2c(-c3ccccn3)nc3cc(C(N)=O)ccn23)cc1` [compound 1015] the “MRSA MIC” value [1] was over 32 mg/L and the “MSSA MIC” value [2] was over 32 mg/L.

`Fc1ccc(Nc2c(-c3nccs3)nc3ccccn23)cc1` [compound 1008] gave an MIC ([1]; read-out: MRSA MIC) of over 32 µg/mL and an MIC ([2]; read-out: MSSA MIC) of over 32 µg/mL.

`CSc1ccc2nc(-c3ccccn3)c(N(C)c3ccc(F)cc3)n2c1` [compound 1004] gave an MIC ([1]; read-out: MRSA MIC) of 8 µg/mL (≈ 22 µM) and an MIC ([2]; read-out: MSSA MIC) of 8 µg/mL (≈ 22 µM).

With `CC(C)CN(c1ccc(F)cc1)c1c(-c2nccs2)nc2ccccn12` [compound 1010] the “MRSA MIC” value [1] was over 32 mg/L and the “MSSA MIC” value [2] was over 32 mg/L.

In the case of `CC(C)CN(c1ccc(F)cc1)c1c(-c2ccccn2)nc2ncccn12` [OSA_001038], the MIC [2, 4] is reported as 8 µg/mL (≈ 22.1 µM).

With `Cc1ccc(-c2c(-c3ccccn3)nc3cc(N4CCNCC4)ccn23)cc1` [compound 1014] the “MRSA MIC” value [1] was over 32 mg/L and the “MSSA MIC” value [2] was over 32 mg/L.

In the case of `COc1cccc(-c2nc3ccccn3c2N(CC(C)C)c2ccc(F)cc2)n1` [compound 1025], the “MRSA MIC” value [1] is reported as over 32 mg/L and the “MSSA MIC” value [2] is reported as over 32 mg/L.

Work on `Cc1ccc(-c2c(-c3ccccn3)nc3cc(N4CCNCC4)ccn23)cc1` [OSA_001014] yielded an MIC ([1]; UCL, read-out: MRSA MIC (UCL)) of over 32 µg/mL and an MIC ([2]; read-out: MSSA MIC (UCL)) of over 32 µg/mL.

For `COc1ccc(-c2c(-c3ccccn3)nc3n2CCC3)cc1OC` [compound 820], the “MRSA MIC” value [1] was 32 mg/L, the MIC ([1]; 16 h, read-out: MRSA MIC) was over 32 µg/mL and the MIC ([1]; read-out: MRSA MIC) was over 32 µg/mL. It also gave an MIC ([2]; read-out: MSSA MIC) of over 32 µg/mL.

In the case of `c1ccc(-c2nc3n(c2-c2ccc4c(c2)OCO4)CCS3)nc1` [compound 813], the “MRSA MIC” value [1] is reported as 32 mg/L.

`CCN(CC)c1ccc(-c2c(-c3ccccn3)nc3ccccn23)cc1` [compound 1011] was tested, and the MIC ([1]; read-out: MRSA MIC) was 4 µg/mL (≈ 11.7 µM) and the MIC ([2]; read-out: MSSA MIC) was 4 µg/mL (≈ 11.7 µM).

`CN(c1ccc(F)cc1)c1c(-c2ccccn2)nc2ccc(Br)cn12` [compound 1003] was tested, and the MIC ([1]; read-out: MRSA MIC) was 16 µg/mL (≈ 40.3 µM) and the MIC ([2]; read-out: MSSA MIC) was 16 µg/mL (≈ 40.3 µM).

With `COc1ccc(-c2nc3ccccn3c2N(CC(C)C)c2ccc(F)cc2)nc1` [OSA_001034] the MIC [1, 3] was 8 µg/mL (≈ 20.5 µM).

`CN1CCN(c2ccc(-c3c(-c4ccccn4)nc4ccccn34)cc2)CC1` [compound 1012] was tested, and the MIC ([1]; read-out: MRSA MIC) was over 32 µg/mL and the MIC ([2]; read-out: MSSA MIC) was over 32 µg/mL.

Compound `c1ccc(-c2nc3ccccn3c2-c2ccc3c(c2)OCO3)nc1` [compound 814] has an MIC ([1]; read-out: MRSA MIC) of 32 µg/mL (≈ 101 µM).

In the case of `Cc1ccc(-c2c(-c3ccccn3)nc3cc(C#N)ccn23)cc1` [compound 1013], the “MRSA MIC” value [1] is reported as over 32 mg/L and the “MSSA MIC” value [2] is reported as over 32 mg/L.

For `COc1ccnc(-c2nc3ccccn3c2N(C)c2ccc(F)cc2)c1` [compound 1007], the “MRSA MIC” value [1] was 8 mg/L and the “MSSA MIC” value [2] was 8 mg/L.

Compound `CC(C)CN(c1ccc(F)cc1)c1c(-c2nccs2)nc2ccccn12` [OSA_001010] has an MIC ([1]; UCL, read-out: MRSA MIC (UCL)) of over 32 µg/mL and an MIC ([2]; read-out: MSSA MIC (UCL)) of over 32 µg/mL.

In the case of `COc1ccc(-c2nc3ccccn3c2N(CC(C)C)c2ccc(F)cc2)nc1` [compound 1034], the “MRSA MIC” value [1] is reported as 8 mg/L.

`c1ccc(-c2nc3n(c2-c2ccc4cccnc4c2)CCC3)nc1` [compound 833] was tested, and the “activity against MRSA, in words” value [1] was “ineffective” and the MIC ([1]; read-out: MRSA MIC) was over 32 µg/mL.
